From patent publication US12304899B2, “Factor XI activation inhibitors” (Merck Sharp & Dohme LLC, priority 2019, dated 2025) come the findings set out here.

In the assay the target is T1, Human coagulation factor (F)XI (Homo sapiens, UniProt P03951).
T1 construct: purchased Haematologic Technologies Inc. (FXI); Enzyme Research Laboratories (FXIIa) HCXI-150 (FXI); HFXIIa (FXIIa)
T1 sequence (P03951 19-625): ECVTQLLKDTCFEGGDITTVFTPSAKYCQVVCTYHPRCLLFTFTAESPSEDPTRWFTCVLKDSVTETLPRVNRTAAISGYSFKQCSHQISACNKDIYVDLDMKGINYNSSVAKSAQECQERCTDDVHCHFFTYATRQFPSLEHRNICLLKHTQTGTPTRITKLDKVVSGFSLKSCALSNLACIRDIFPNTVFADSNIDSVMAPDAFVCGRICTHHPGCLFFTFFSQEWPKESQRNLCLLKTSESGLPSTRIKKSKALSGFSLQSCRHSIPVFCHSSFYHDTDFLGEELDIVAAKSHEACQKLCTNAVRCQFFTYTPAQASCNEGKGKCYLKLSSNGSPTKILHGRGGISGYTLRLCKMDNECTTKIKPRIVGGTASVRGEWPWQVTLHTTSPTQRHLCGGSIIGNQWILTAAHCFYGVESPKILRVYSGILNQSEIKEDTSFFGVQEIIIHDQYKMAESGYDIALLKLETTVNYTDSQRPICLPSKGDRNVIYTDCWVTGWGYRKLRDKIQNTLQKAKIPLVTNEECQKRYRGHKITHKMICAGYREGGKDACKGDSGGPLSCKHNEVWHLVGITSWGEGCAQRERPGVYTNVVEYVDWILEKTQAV
Description: Inhibition of FXIIa mediated activation of FXI (activation of human Factor XI to XIa by human Factor α-XIIa). The note with it: human FXI pre-incubated with compound 30 min at 22° C., activation by human FXIIa 60 min, z-GPR-AFC substrate fluorescence, 4 parameter logistic fit; read-out: Inhibition of FXIIa meditated activation of FXI. Type of assay: biochemical. The method, then: Inhibition of FXIIa Mediated Activation of FXI
Activation of Human Factor XI to XIa by Human Factor α-XIIa
The assay was performed in 50 mM HEPES, 150 mM NaCl, 5 mM CaCl2, 0.1% PEG-8000, pH 7.4 buffer in black, flat-bottom, polystyrene microplates (Corning, Cat #3573). Serial dilutions (10-point, 3.333-fold) of the test compounds delivered as 10 mM DMSO stocks were prepared in the Labcyte Echo-qualified PP 384 well microplates (Labcyte, Cat #P-05525). Human coagulation factor (F)XI (Haematologic Technologies Inc., Cat #HCXI-150, concentration 46 nM, 19.5 uL) was pre-incubated with 0.5 uL of the test compounds for 30 min at 22° C. The activation was initiated by addition of 10 uL of human coagulation factor (F)XIIa (Enzyme Research Laboratories, Cat #HFXIIa, concentration 30 nM) and the reaction proceeded for 60 min at 22° C., after which it was quenched by addition of a selective inhibitor of FXIIa (Compound 54 in International Patent Publication WO2018093695) concentration 600 uM in DMSO, 1 uL). 10 min after the quench, 29 uL of z-GPR-AFC substrate (Sigma, Cat #C0980-10 MG, concentration 200 uM) was added into each well and the detection reaction proceeded for 60 min at 22° C. Fluorescence at 405/510 nm was measured in end-point mode using an Envision plate-reader (Perkin Elmer). IDBS Activity Base XE (ABase) analysis using 4 parameter logistic fit was performed to determine Minimum, Maximum, EC50, and Slope Factor for each compound.
For the molecule `NC(=O)C1(c2ccccc2)CCN(C(=O)c2cc(C(=O)N3CCCCC3)c3cc(OCc4nc5ccccc5s4)ccc3n2)CC1` [Example 59, 1-(6-(benzo[d]thiazol-2-yl-methoxy)-4-(piperidine-1-carbonyl)quinoline-2-car-bonyl)-4-phenylpiperidine-4-carboxamide], the EC50 was 60 nM.
On to `N#Cc1cc(Cl)ccc1COc1ccc2nc(C(=O)N3CCC(C#N)(c4ccccc4)CC3)cc(C(=O)N3CCCCC3)c2c1` [Example 27, 1-(6-((4-chloro-2-cyanobenzyl)oxy)-4-(piperidine-1l-carbonyl)quinoline-2-carbonyl)-4-phenylpiperidine-4-carbonitrile], for which the EC50 came out at 39 nM.
As for `N#CC1(c2ccccc2)CCN(C(=O)c2cc(C(=O)N3CCCCC3)c3cc(OCc4noc5ccccc45)ccc3n2)CC1` [Example 51, 1-(6-(benzo[d]isoxazol-3-yl-methoxy)-4-(piperidine-1-carbonyl)quinoline-2-carbon-yl)-4-phenylpiperidine-4-carbonitrile], the EC50 is 40.5 nM.
On to `O=C(c1cc(C(=O)N2CCCCC2)c2cc(OCc3nc4ccccc4s3)ccc2n1)N1CCC(c2cc[nH]n2)CC1` [Example 63, (4-(1H-pyrazol-3-yl)piperi-din-1-yl)(6-(benzo[d]-thiazol-2-ylmethoxy)-4-(piperidine-1-carbonyl)-quinolin-2-yl)methanone], for which the EC50 was found to be 31 nM.
For the molecule `O=C(c1cc(C(=O)N2CCCCC2)c2cc(OCc3nc4ccccc4s3)ccc2n1)N1CCN(CC(F)(F)F)CC1` [Example 65, (6-(benzo[d]thiazol-2-yl-methoxy)-2-(4-(2,2,2-trifluoroethyl)piperazine-1-carbonyl)quinolin-4-yl)-(piperidin-1-yl)methanone], the EC50 was found to be 19.1 nM.
Under `CS(=O)(=O)N1CCN(C(=O)c2cc(C(=O)N3CCCCC3)c3cc(OCc4nc5ccccc5s4)ccc3n2)CC1` [Example 68, (6-(benzo[d]thiazol-2-yl-methoxy)-2-(4-(methyl-sulfonyl)piperazine-1-carbonyl)quinolin-4-yl)-(piperidin-1-yl)methanone] stands 19.1 nM; under `O=C(c1cc(C(=O)N2CCCCC2)c2cc(OCc3nc4ccccc4s3)ccc2n1)N1CCCN(Cc2nccs2)CC1` [Example 71, 4-(6-(benzo[d]thiazol-2-yl-methoxy)-4-(piperidine-1-carbonyl)quinoline-2-car-bonyl)-1-(thiazol-2-yl-methyl)-1,4-diazepan-1-ium 2,2,2-trifluoroacetate], 48.6 nM.
With `O=C(c1cc(C(=O)N2CCCCC2)c2cc(OCc3nc4ccccc4s3)ccc2n1)N1CCC(c2ncc[nH]2)CC1` [Example 74, (4-(1H-imidazol-2-yl)-piperidin-1-yl)(6-(benzo-[d]thiazol-2-ylmethoxy)-4-(piperidine-carbonyl)-quinolin-2-yl)methanone], the EC50 is 32.6 nM.
As to `N#Cc1cc(F)ccc1COc1ccc2nc(C(=O)N3CCC(C#N)(c4ccccc4)CC3)cc(C(=O)N3CCCCC3)c2c1` [Example 45, 1-(6-((2-cyano-4-fluoro-benzyl)oxy)-4-(piperidine-1-carbonyl)quinoline-2-carbon-yl)-4-phenylpiperidine-4-carbonitrile], the EC50 worked out at 36.9 nM.
Consider `O=C(c1cc(C(=O)N2CCCCC2)c2cc(OCc3nc4ccccc4s3)ccc2n1)N1CCC2(CC1)CC2(F)F` [Example 62, (6-(benzo[d]thiazol-2-yl-methoxy)-2-(1,1-difluoro-6-azaspiro[2.5]octane-6-carbonyl)quinolin-4-yl)-(piperidin-1-yl)methanone], for which the EC50 stood at 19.1 nM.
The figure for `CC(N1CCN(C(=O)c2cc(C(=O)N3CCCCC3)c3cc(OCc4nc5ccccc5s4)ccc3n2)CC1)C(F)(F)F` (stereo not shown) [Example 66, (6-(benzo[d]thiazol-2-yl-methoxy)-2-(4-(1,1,1-trifluoropropan-2-yl)-piperazine-1-carbonyl)-quinolin-4-yl)(piperidin-1-yl)methanone] is 16.5 nM; for `Cn1nnc2cc(COc3ccc4nc(C(=O)N5CCC(n6cccn6)CC5)cc(C(=O)N5CCCCC5)c4c3)ccc21` [Example 15, (4-(1H-pyrazol-1-yl)piperidin-1-yl)(6-((1-methyl-1H-benzo-[d][1,2,3]triazol-5-yl)methoxy)-4-(piperidine-1-carbonyl)-quinolin-2-yl)methanone] it is 23.7 nM.
Under `O=C(c1cc(C(=O)N2CCCCC2)c2cc(OCc3ccc(C(F)(F)F)nc3)ccc2n1)N1CCC(n2cccn2)CC1` [Example 10, (4-(1H-pyrazol-1-yl)piperidin-1-yl)(4-(piperidine-1-carbon-yl)-6-((6-(trifluoromethyl)-pyridin-3-yl)methoxy)-quinolin-2-yl)methanone] stands 21.8 nM; under `N#CC1(c2ccccn2)CCN(C(=O)c2cc(C(=O)N3CCCCC3)c3cc(OCc4nc5ccccc5s4)ccc3n2)CC1` [Example 57, 1-(6-(benzo[d]thiazol-2-yl-methoxy)-4-(piperidine-1-carbonyl)quinoline-2-car-bonyl)-4-(pyridin-2-yl)-piperidine-4-carbonitrile], 21.8 nM; under `CN(C(=O)c1cc(C(=O)N2CCC(n3cccn3)CC2)nc2ccc(OCc3nc4ccccc4s3)cc12)C1CC1` [Example 54, 2-(4-(1H-pyrazol-1-yl)piperi-dine-1-carbonyl)-6-(benzo[d]-thiazol-2-ylmethoxy)-N-cyclo-propyl-N-methylquinoline-4-carboxamide], 71.5 nM.
As to `Cc1c(COc2ccc3nc(C(=O)N4CCC(C#N)(n5cccn5)CC4)cc(C(=O)N4CCCCC4)c3c2)ccc2c1COC2=O` [Example 1, 1-(6-((4-methyl-1-oxo-1,3-dihydroisobenzofuran-5-yl)methoxy)-4-(piperidine-1-carbonyl)quinoline-2-carbonyl)-4-(1H-pyrazol-1-yl)piperidine-4-carbonitrile], the EC50 came out at 21.8 nM.
As for `COc1ccc(COc2ccc3nc(C(=O)N4CCC(C#N)(c5ccccc5)CC4)cc(C(=O)N4CCCCC4)c3c2)cc1F` [Example 39, 1-(6-((3-fluoro-4-methoxy-benzyl)oxy)-4-(piperidine-1-carbonyl)quinoline-2-carbon-yl)-4-phenylpiperidine-4-carbonitrile], the EC50 is 31.8 nM.
The figure for `N#CC1(c2ccccc2)CCN(C(=O)c2cc(C(=O)N3CCCCC3)c3cc(OCc4ccc(F)cc4[N+](=O)[O-])ccc3n2)CC1` [Example 28, 1-(6-((4-fluoro-2-nitro-benzyl)oxy)-4-(piperidine-1-carbonyl)quinoline-2-carbon-yl)-4-phenylpiperidine-4-carbonitrile] is 38.9 nM; for `N#CC1(c2ccccc2)CCN(C(=O)c2cc(C(=O)N3CCCCC3)c3cc(OCc4ccc([N+](=O)[O-])cc4)ccc3n2)CC1` [Example 37, 1-(6-((4-nitrobenzyl)oxy)-4-(piperidine-1-carbonyl)quin-oline-2-carbonyl)-4-phenyl-piperidine-4-carbonitrile] it is 48.2 nM; for `O=C(c1cc(C(=O)N2CCCCC2)c2cc(OCc3nc4ccccc4s3)c(F)cc2n1)N1CCC(n2cccn2)CC1` [Example 75, (4-(1H-pyrazol-1-yl)piperidin-1-yl)(6-(benzo[d]thiazol-2-ylmethoxy)-7-fluoro-4-(piperidine-1-carbonyl)quinolin-2-yl)methanone] it is 18.8 nM.
Under `N#CC1(n2cccn2)CCN(C(=O)c2cc(C(=O)N3CCCCC3)c3cc(OCc4ccc5snnc5c4)ccc3n2)CC1` [Example 76, 1-(6-(benzo[d][1,2,3]thiadiazol-5-ylmethoxy)-4-(piperidine-1-carbonyl)quinoline-2-carbonyl)-4-(1H-pyrazol-1-yl)piperidine-4-carbonitrile] stands 10.2 nM; under `N#CC1(c2ccccc2)CCN(C(=O)c2cc(C(=O)N3CCCCC3)c3cc(OCc4ccc(F)cc4F)ccc3n2)CC1` [Example 43, 1-(6-((2,4-difluorobenzyl)-oxy)-4-(piperidine-1-carbon-yl)quinoline-2-carbonyl)-4-phenylpiperidine-4-carbonitrile], 38.5 nM.
Under `O=C(c1cc(C(=O)N2CCCCC2)c2cc(OCc3nc4ccccc4s3)ccc2n1)N1CCC(n2ccnn2)CC1` [Example 64, (4-(1H-1,2,3-triazol-1-yl)-piperidin-1-yl)(6-(benzo-[d]thiazol-2-ylmethoxy)-4-(piperidine-1-carbonyl)-quinolin-2-yl)methanone] stands 42.1 nM; under `N#Cc1cccc(COc2ccc3nc(C(=O)N4CCC(C#N)(c5ccccc5)CC4)cc(C(=O)N4CCCCC4)c3c2)c1` [Example 32, 1-(6-((3-cyanobenzyl)oxy)-4-(piperidine-1-carbonyl)quin-oline-2-carbonyl)-4-phenyl-piperidine-4-carbonitrile], 46.9 nM; under `O=C(c1cc(C(=O)N2CCCCC2)c2cc(OCc3ccc(Cl)cc3)ccc2n1)N1CCC(n2cccn2)CC1` [Example 21, (4-(1H-pyrazol-1-yl)piperidin-1-yl)(6-((4-chlorobenzyl)oxy)-4-(piperidine-1-carbonyl)quin-olin-2-yl)methanone], 34.3 nM.
